Experimental data published in US8722930B2, “Protease inhibitors” (Orion Corporation, priority 2009, dated 2014).
Read-outs that look alike come from different tables or passages of the source.

Experiments:
[1] = target: T1, Purified recombinant matriptase (Homo sapiens, UniProt Q9Y5Y6); assay: Matriptase fluorescence-based enzymatic assay (Boc-Gln-Ala-Arg-AMC cleavage); assay type: biochemical
T1 sequence (Q9Y5Y6 1-855): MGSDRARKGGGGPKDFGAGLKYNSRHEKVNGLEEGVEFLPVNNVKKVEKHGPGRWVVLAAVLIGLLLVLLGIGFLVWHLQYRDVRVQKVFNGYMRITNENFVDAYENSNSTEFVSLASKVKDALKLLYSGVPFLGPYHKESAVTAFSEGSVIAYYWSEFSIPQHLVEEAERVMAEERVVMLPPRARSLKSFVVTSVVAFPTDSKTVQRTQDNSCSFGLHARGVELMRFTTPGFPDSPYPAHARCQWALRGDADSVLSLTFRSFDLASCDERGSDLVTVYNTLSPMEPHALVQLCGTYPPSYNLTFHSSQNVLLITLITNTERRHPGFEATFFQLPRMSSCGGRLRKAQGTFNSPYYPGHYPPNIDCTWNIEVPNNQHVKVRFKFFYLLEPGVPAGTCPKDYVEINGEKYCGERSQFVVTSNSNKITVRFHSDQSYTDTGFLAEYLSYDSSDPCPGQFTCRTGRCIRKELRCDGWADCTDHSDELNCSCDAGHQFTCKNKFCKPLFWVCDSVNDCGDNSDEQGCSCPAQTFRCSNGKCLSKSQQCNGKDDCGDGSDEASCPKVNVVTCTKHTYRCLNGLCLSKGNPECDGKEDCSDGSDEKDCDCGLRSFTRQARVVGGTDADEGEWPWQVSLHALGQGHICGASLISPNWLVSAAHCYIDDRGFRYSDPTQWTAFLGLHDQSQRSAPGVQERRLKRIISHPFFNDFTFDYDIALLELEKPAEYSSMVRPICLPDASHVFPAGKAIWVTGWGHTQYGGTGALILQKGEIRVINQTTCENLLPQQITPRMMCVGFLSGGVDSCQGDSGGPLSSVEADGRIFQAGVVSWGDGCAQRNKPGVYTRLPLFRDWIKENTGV
From the text: (§1) Purified recombinant matriptase was used in a fluorescence-based screening assay using Gln-Ala-Arg peptide as a substrate. In this assay the cleavage of AMC from Boc-Gln-Ala-Arg-7-amido-4 methylcoumarin hydrochloride (Boc-Gln-Ala-Arg-AMC) (Sigma, USA) was monitored by measuring the increase in fluorescence intensity of AMC released upon proteolytic cleavage at 480 nm (kex=360 nm). Similarly, enzymatic assays in fluorimetric or colorimetric format for uPA, Factor Xa, thrombin, plasmin and trypsin (Sigma, USA) were established using substrates pyroGlu-Gly-Arg-pNA.HCl, Boc-Gln-Ala-Arg-AMC, CH3OCO-D-CHA-Gly-Arg-PNA.AcoH, Pyro Glu-Phe-Lys—pNA.HCl and Boc-Gln-Ala-Arg-AMC, respectively.

trypsin = assay: Trypsin enzymatic assay (selectivity screening); assay type: biochemical; conditions: % Inhibition at 5 μM
From the text: as §1

uPA = target: T2, uPA (Homo sapiens, UniProt P00749); assay: uPA enzymatic assay (selectivity screening); assay type: biochemical
T2 construct: purchased Sigma, USA
From the text: as §1

DU145 cells [2] = assay: Soft agar colony formation assay; assay type: cell-based; conditions: Homo sapiens, DU-145, 504 h, about three weeks, read-out: EC50 for inhibition of soft agar colony formation
Experimental: Soft agar colony formation assays were performed to measure the long-term survival and anchorage-independent growth capacity of tumor cells. DU145 cells were seeded in 0.7% nutrient agar with the test compound on an underlay of 1.4% nutrient agar in a six well plate. On the day following cell seeding, liquid cell culture medium containing the compound was added to the well to prevent the agar from drying out and was changed regularly till the completion of the experiment. The cells were allowed to form colonies for a period of about three weeks following which the colonies were stained with 0.005% solution of crystal violet in 25% methanol. The colonies were counted under a dissecting microscope.

Factor Xa = target: T3, Factor Xa (Homo sapiens, UniProt P00742); assay: Factor Xa enzymatic assay (selectivity screening); assay type: biochemical
T3 construct: uPA, Factor Xa, thrombin, plasmin and trypsin (Sigma, USA); purchased Sigma, USA
T3 sequence (P00742 235-488 limits assumed): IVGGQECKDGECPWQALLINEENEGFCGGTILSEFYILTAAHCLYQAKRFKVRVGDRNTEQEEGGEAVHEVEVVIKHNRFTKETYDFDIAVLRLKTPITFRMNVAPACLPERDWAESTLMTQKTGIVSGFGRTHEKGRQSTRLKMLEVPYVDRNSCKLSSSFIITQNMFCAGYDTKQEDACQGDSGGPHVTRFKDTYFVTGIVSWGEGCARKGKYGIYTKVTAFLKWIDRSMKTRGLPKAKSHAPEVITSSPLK
T3 sequence (P00742 41-179 partner limits assumed): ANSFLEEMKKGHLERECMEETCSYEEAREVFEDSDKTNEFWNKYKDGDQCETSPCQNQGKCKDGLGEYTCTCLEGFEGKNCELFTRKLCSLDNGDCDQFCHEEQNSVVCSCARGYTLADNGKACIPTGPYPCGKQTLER
From the text: as §1

thrombin = target: T4, thrombin (Homo sapiens, UniProt P00734); assay: Thrombin enzymatic assay (selectivity screening); assay type: biochemical
T4 construct: uPA, Factor Xa, thrombin, plasmin and trypsin (Sigma, USA); purchased Sigma, USA
From the text: as §1

plasmin = target: T5, plasmin (Homo sapiens, UniProt P00747); assay: Plasmin enzymatic assay (selectivity screening); assay type: biochemical
T5 construct: uPA, Factor Xa, thrombin, plasmin and trypsin (Sigma, USA); purchased Sigma, USA
T5 sequence (P00747 581-810 limits assumed, species assumed): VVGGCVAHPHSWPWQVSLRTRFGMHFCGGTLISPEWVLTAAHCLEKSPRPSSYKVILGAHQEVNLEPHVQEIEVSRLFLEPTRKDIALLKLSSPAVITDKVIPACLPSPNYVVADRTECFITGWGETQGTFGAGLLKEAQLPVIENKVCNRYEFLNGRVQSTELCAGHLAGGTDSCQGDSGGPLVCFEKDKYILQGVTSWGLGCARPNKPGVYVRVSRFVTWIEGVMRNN
T5 sequence (P00747 97-580 partner limits assumed, species assumed): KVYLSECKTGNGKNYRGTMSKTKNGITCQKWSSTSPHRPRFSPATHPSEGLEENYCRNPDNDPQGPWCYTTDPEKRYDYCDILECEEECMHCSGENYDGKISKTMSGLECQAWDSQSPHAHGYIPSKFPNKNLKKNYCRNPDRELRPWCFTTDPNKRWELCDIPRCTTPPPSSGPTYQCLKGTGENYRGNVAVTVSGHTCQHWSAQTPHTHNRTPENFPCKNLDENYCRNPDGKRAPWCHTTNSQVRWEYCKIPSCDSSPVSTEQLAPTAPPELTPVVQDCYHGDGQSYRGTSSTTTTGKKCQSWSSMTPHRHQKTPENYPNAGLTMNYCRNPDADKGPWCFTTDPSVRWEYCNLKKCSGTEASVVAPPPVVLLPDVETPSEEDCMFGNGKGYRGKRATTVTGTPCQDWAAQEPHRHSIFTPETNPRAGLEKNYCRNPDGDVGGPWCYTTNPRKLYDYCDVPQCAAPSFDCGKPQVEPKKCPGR
From the text: as §1

PC3 cells = assay: PC3 xenograft model; assay type: in vivo; conditions: for Tumor growth inhibition (%): PC3 model, 21 days
Experimental: (§2) In order to determine the in vivo efficacy, xenograft models were established by injecting 5×10^6 DU145 cells with matrigel or 5×10^6 PC3 cells without matrigel subcutaneously. Once the tumors reached palpable size (˜80 mm3), compound of Example 27 was administered in a vehicle comprising of 2% ethanol, 10% hydroxyl cyclodextrin in 0.9% saline. The compound of Example 27 was dosed subcutaneously to animals with DU145 tumors at 1.5, 5 and 15 mg/kg for 15 days. In the PC3 xenograft study, compound of Example 27 was administered at 0.5, 1.5, 5.0 and 15.0 mg/kg daily.

[3] = Maximum tolerated dose (MTD) study; assay type: in vivo; conditions: 14 days, male athymic mice
Experimental: An MTD study was performed for the compound of Example 27. […] The compound was administered at 1, 3, 10 and 30 mg/kg once daily in male athymic mice via subcutaneous route in 5 mice each. […]

DU145 tumors = assay: DU145 xenograft model; assay type: in vivo; conditions: for Tumor growth inhibition (%): DU145 model, 15 days
Experimental: as §2

DU145 cells [4] = assay: Cell invasion assay (matrigel transwell); assay type: cell-based; conditions: Homo sapiens, DU-145, 48 hours
Experimental: Cell invasion assays were done for quantitating the degree to which invasive cells penetrate a barrier essentially as in migration assay but with the use of matrigel consisting of basement membrane components in the transwell inserts and incubating for 48 hours. The barrier used was matrigel. This was followed by fixing and staining of the transwell insert with 0.5% crystal violet in 25% methanol in order to visualize cells migrated.

DU145 cells [5] = assay: Migration assay in transwell chambers; assay type: cell-based; conditions: Homo sapiens, DU-145, 24 hours
Experimental: Migration assays were performed to determine the effect of matriptase inhibitors on cell motility. Cells were seeded with 10 μM test compound into transwell chambers and allowed to migrate for 24 hours using a combination of 10% FBS and 5 μg/ml fibronectin as chemoattractant.

DU145 cells [6] = assay: Cytotoxicity, Calcein AM assay, DU145; assay type: cell-based; conditions: Homo sapiens, DU-145, 96 h, four days of incubation, read-out: Cell survival at 10 μM (%)
Experimental: Cytotoxicity of the compounds was tested in cell lines or primary cells using Calcein AM assay. This assay measures cell viability by quantitation of cleaved fluorescent product of a cell permeable substrate that is retained in the cytoplasm of cells with uncompromised cytoplasmic membrane integrity. The cells were seeded into 96-well plate and allowed to adhere for a day followed by addition of compound at several different concentrations. After four days of incubation with the compound, media was removed from the cells followed by addition of PBS and addition of Calcein AM reagent at 1 μM final concentration. The cells were then allowed to incubate at 37° C. for half an hour followed by reading on the fluorimeter. Percent viability was calculated based on fluorescence value obtained at 485/520 nm with cut off at 495 nm.

[7] = Table 1, read-out: Matriptase Inhibition IC50
[8] = Table 2, read-out: Matriptase IC50
[9] = 1, 3, 10 and 30 mg/kg once daily subcutaneous

inhibition at 5 µM (uPA) [%]	EC50 (DU145 cells [2]) [nM]	inhibition at 5 µM (Factor Xa) [%]	inhibition at 5 µM (thrombin) [%]	inhibition at 5 µM (plasmin) [%]	IC50 [1, 7] [nM]	IC50 [1, 8] [nM]	SMILES	Trypsin Inhibition (%) (trypsin)	inhibition at 10 µM (DU145 cells [4]) [%]	inhibition at 10 µM (DU145 cells [5]) [%]	viability at 10 µM (DU145 cells [6]) [%]	other results
23	700	52	41	25	379	122	N=C(N)c1ccc(Oc2cc(OCc3ccc(Br)cc3)cc(C(=O)NC3CCC(N)CC3)c2)cc1 (centres unmarked) [Example 51, N-(4-Aminocyclohexyl)-3-(4-bromobenzyloxy)-5-(4-carbamimidoylphenoxy)benzamide]		61	-4	93	
7	100	73	70	42	35	35	N=C(N)c1ccc(COc2cc(Oc3ccc(C(=N)N)cc3)cc(C(=O)N3CCC(CCN)CC3)c2)cc1 [Example 58, 2-{1-[3-(4-carbamimidoyl-benzyloxy)-5-(4-carbamimidoyl-phenoxy)benzoyl]-piperidin-4-yl}ethylamine]		91	63	100	
-1	900	71	3	18	38	38	N=C(N)c1ccc(Oc2cc(OCc3cccc(CN)c3)cc(C(=O)NC3CCC(N)CC3)c2)cc1 (centres unmarked) [Example 47, N-(4-Aminocyclohexyl)-3-(3-aminomethylbenzyloxy)-5-(4-carbamimidoylphenoxy)benzamide]		63	39	100	
					4		N=C(N)c1ccc(Oc2cc(NC(=O)[C@H]3CC[C@H](N)CC3)cc(Oc3ccc(C(=N)N)cc3)c2)cc1 [Example 108, Trans-4-amino-cyclohexanecarboxylic Acid[3,5-bis-(4-carbamimidoyl-phenoxy)-phenyl]-amide]	76				uPA Inhibition (%) (uPA; % Inhibition at 5 μM): 23%; Factor Xa Inhibition (%) (Factor Xa; % Inhibition at 5 μM): 81%; Thrombin Inhibition (%) (thrombin; % Inhibition at 5 μM): 49%; Plasmin Inhibition (%) (plasmin; % Inhibition at 5 μM): 61%
11		86	33	10	13.2	13	Cc1cc(Oc2cc(Oc3ccc(C(=N)N)cc3)cc(C(=O)NC3CCC(N)CC3)c2)ccc1C(=N)N (centres unmarked) [Example 74, N-(4-Aminocyclohexyl)-3-(4-carbamimidoyl-3-methylphenoxy)-5-(4-carbamimidoylphenoxy)benzamide]	28	45	18	95	

SMILES	inhibition at 5 µM (uPA) [%]	EC50 (DU145 cells [2]) [nM]	inhibition at 5 µM (Factor Xa) [%]	inhibition at 5 µM (thrombin) [%]	inhibition at 5 µM (plasmin) [%]	IC50 [1, 7] [nM]	IC50 [1, 8] [nM]	Trypsin Inhibition (%) (trypsin)	inhibition at 10 µM (DU145 cells [4]) [%]	inhibition at 10 µM (DU145 cells [5]) [%]	viability at 10 µM (DU145 cells [6]) [%]	other results
N=C(N)c1ccc(Oc2cc(C(=O)NC3CCC(N)CC3)cc(Oc3ccc(C(=N)N)cc3)n2)cc1 (centres unmarked) [Example 13, N-(4-Amino-cyclohexyl)-2,6-bis-(4-carbamimidoyl-phenoxy)-isonicotinamide]	13	500	84	28	33			92				IC50 [1]: 20 nM
[H]/N=C(\N)c1ccc(Oc2cc(Oc3ccc(/C(N)=N/[H])cc3)cc(C(=O)NC3CCC(N)CC3)c2)cc1 (centres unmarked) [Example 27, N-(4-Amino-cyclohexyl)-3,5-bis-(4-carbamimidoyl-phenoxy)-benzamide]	14	200	83	41	33	17	17	61	79	88	100	Tumor growth inhibition (%) (PC3 cells; 0.5 mg/kg daily): 14%; Tumor growth inhibition (%) (PC3 cells; 1.5 mg/kg daily): 44%; Tumor growth inhibition (%) (PC3 cells; 5 mg/kg daily): 65%; Tumor growth inhibition (%) (PC3 cells; 15 mg/kg daily): 62%; Inhibition of tumor growth (in words) (PC3 cells; PC3 xenograft study): significant and dose-dependent inhibition of tumor growth; Body weight reduction [3, 9]: less than 2%; Clinical signs [3, 9]: no gross changes in clinical signs; Mortality [3, 9]: did not show any mortality; Tolerability ([3]; doses up to 30 mg/kg once daily subcutaneous): well tolerated; Tumor growth inhibition (%) (DU145 tumors; 1.5 mg/kg subcutaneously): 61.2%; Tumor growth inhibition (%) (DU145 tumors; 5 mg/kg subcutaneously): 84.5%; Tumor growth inhibition (%) (DU145 tumors; 15 mg/kg subcutaneously): 75%; Reduction in tumor volume (in words) (DU145 tumors; DU145 xenograft study): significant reduction in tumor volume
